Experimental data as given in ChEMBL document CHEMBL1135978, “Three-dimensional quantitative structure-activity relationship of 1,4-dihydropyridines as antitubercular agents” (2002).

Test system: Mycobacterium tuberculosis
Experiment: Antitubercular activity against Mycobacterium tuberculosis H37Rv ATCC 27294
Assay type: functional
Design: concentration or dose not given beside the values; unit not given here

Row | Structure (SMILES) | Inhibition
1 | CC1=C(C(=O)Nc2ccccc2Cl)C(c2ccccc2S)C(C(=O)Nc2ccccc2Cl)=C(C)N1 | -0.954
2 | COc1cc(C2C(C(=O)Nc3ccc(Cl)cc3)=C(C)NC(C)=C2C(=O)Nc2ccc(Cl)cc2)cc(OC)c1OC | 1.1949
3 | COc1ccccc1NC(=O)C1=C(C)NC(C)=C(C(=O)Nc2ccccc2OC)C1c1ccc(SC)cc1 | 1.1233
4 | COc1ccccc1NC(=O)C1=C(C)NC(C)=C(C(=O)Nc2ccccc2OC)C1c1cccc([N+](=O)[O-])c1 | 0.2498
5 | CC1=C(C(=O)Nc2ccc(C)cc2C)C(c2cccc([N+](=O)[O-])c2)C(C(=O)Nc2ccc(C)cc2C)=C(C)N1 | 0.0521
6 | CC1=C(C(=O)Nc2cc(C)ccc2C)C(c2ccccc2O)C(C(=O)Nc2cc(C)ccc2C)=C(C)N1 | -0.432
7 | CC1=C(C(=O)Nc2ccc(C)cc2C)C(c2ccccc2)C(C(=O)Nc2ccc(C)cc2C)=C(C)N1 | -0.865
8 | CSc1ccc(C2C(C(=O)Nc3ccc(C)cc3C)=C(C)NC(C)=C2C(=O)Nc2ccc(C)cc2C)cc1 | 0.158
9 | CC1=C(C(=O)Nc2ccc([N+](=O)[O-])cc2)C(c2ccc(Cl)cc2Cl)C(C(=O)Nc2ccc([N+](=O)[O-])cc2)=C(C)N1 | 1.3802
10 | CC1=C(C(=O)Nc2cccc([N+](=O)[O-])c2)C(c2ccccc2Cl)C(C(=O)Nc2cccc([N+](=O)[O-])c2)=C(C)N1 | 1.5096
11 | CC1=C(C(=O)Nc2cccc([N+](=O)[O-])c2)C(c2ccc(Cl)cc2Cl)C(C(=O)Nc2cccc([N+](=O)[O-])c2)=C(C)N1 | 1.6901
12 | CSc1ccc(C2C(C(=O)Nc3ccccc3Cl)=C(C)NC(C)=C2C(=O)Nc2ccccc2Cl)cc1 | 0.55
13 | CSc1ccc(C2C(C(=O)Nc3ccccc3)=C(C)NC(C)=C2C(=O)Nc2ccccc2)cc1 | 0.3474
14 | CC1=C(C(=O)Nc2ccccc2Cl)C(c2ccc(Cl)cc2Cl)C(C(=O)Nc2ccccc2Cl)=C(C)N1 | -0.9079
15 | COc1ccc(C2C(C(=O)Nc3cc(C)ccc3C)=C(C)NC(C)=C2C(=O)Nc2cc(C)ccc2C)cc1 | -0.158
16 | CC1=C(C(=O)Nc2ccc(Cl)cc2)C(c2cccc([N+](=O)[O-])c2)C(C(=O)Nc2ccc(Cl)cc2)=C(C)N1 | -0.3888
17 | COc1ccccc1NC(=O)C1=C(C)NC(C)=C(C(=O)Nc2ccccc2OC)C1c1ccc(N(C)C)cc1 | 1.1233
18 | CC1=C(C(=O)Nc2ccc([N+](=O)[O-])cc2)C(c2ccc(Cl)cc2)C(C(=O)Nc2ccc([N+](=O)[O-])cc2)=C(C)N1 | 0.2126
19 | COc1ccccc1NC(=O)C1=C(C)NC(C)=C(C(=O)Nc2ccccc2OC)C1c1ccc(Cl)cc1Cl | 1.0047
20 | CC1=C(C(=O)Nc2ccc(Cl)cc2)C(c2ccc(O)cc2)C(C(=O)Nc2ccc(Cl)cc2)=C(C)N1 | 0.575
21 | CC1=C(C(=O)Nc2cccc([N+](=O)[O-])c2)C(c2ccccc2O)C(C(=O)Nc2cccc([N+](=O)[O-])c2)=C(C)N1 | 1.0606
22 | CC1=C(C(=O)Nc2ccccc2Cl)C(c2ccccc2O)C(C(=O)Nc2ccccc2Cl)=C(C)N1 | -1.1949
23 | CC1=C(C(=O)Nc2cccc([N+](=O)[O-])c2)C(c2ccccc2)C(C(=O)Nc2cccc([N+](=O)[O-])c2)=C(C)N1 | 1.1949
24 | COc1ccc(C2C(C(=O)Nc3ccccc3Cl)=C(C)NC(C)=C2C(=O)Nc2ccccc2Cl)cc1 | -0.3679
25 | CC1=C(C(=O)Nc2ccc([N+](=O)[O-])cc2)C(c2ccccc2Cl)C(C(=O)Nc2ccc([N+](=O)[O-])cc2)=C(C)N1 | 1.2787
26 | CSc1ccc(C2C(C(=O)Nc3ccc([N+](=O)[O-])cc3)=C(C)NC(C)=C2C(=O)Nc2ccc([N+](=O)[O-])cc2)cc1 | 1.5096
27 | CSc1ccc(C2C(C(=O)Nc3cccc([N+](=O)[O-])c3)=C(C)NC(C)=C2C(=O)Nc2cccc([N+](=O)[O-])c2)cc1 | 1.6901
28 | CC1=C(C(=O)Nc2ccccc2Cl)C(c2ccc(Cl)cc2)C(C(=O)Nc2ccccc2Cl)=C(C)N1 | -0.6886
29 | COc1ccc(C2C(C(=O)Nc3ccc(Cl)cc3)=C(C)NC(C)=C2C(=O)Nc2ccc(Cl)cc2)c(O)c1 | 0.63
30 | CC1=C(C(=O)Nc2ccccc2Cl)C(c2ccccc2Cl)C(C(=O)Nc2ccccc2Cl)=C(C)N1 | -0.6585
